Experimental data from patent publication US6355799B1, “Substituted benzene compounds, process for their preparation, and herbicidal and defoliant compositions containing them” (ISK Americas Incorporated, priority 1997, dated 2002).

Assays:
Assay type in all cases: in vivo
[1] = test system: redroot pigweed (Amaranthus retroflexus, AMARE); assay: Post-emerge test, greenhouse herbicide activity screening; conditions: post-emerge, 14 days after application, rating scale 0-100
Procedure, shortened: (§1)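 Plants grown in 10 cm pots of sandy loam mix received acetone-dissolved compounds through a moving flat-fan nozzle. Doses ranged from 15 to 1000 g ai/ha. Pre-emerge pots were seeded one day earlier, post-emerge pots 8–21 days earlier. Fourteen days on, each pot was graded 0–100 for damage.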

[2] = test system: ivyleaf morningglory (Ipomoea hederacea, IPOHE); assay: as above; conditions: post-emerge, 14 days after application, rating scale 0-100
Procedure, shortened: as §1

[3] = test system: barnyardgrass (Echinochloa crus-galli, ECHCG); assay: as above; conditions: post-emerge, 14 days after application, rating scale 0-100
Procedure, shortened: as §1

[4] = test system: sicklepod (Cassia obtusifolia, CASOB); assay: as above; conditions: post-emerge, 14 days after application, rating scale 0-100
Procedure, shortened: as §1

[5] = test system: johnsongrass (Sorghum halepense, SORHA); assay: as above; conditions: post-emerge, 14 days after application, rating scale 0-100
Procedure, shortened: as §1

[6] = test system: velvetleaf (Abutilon theophrasti, ABUTH); assay: as above; conditions: post-emerge, 14 days after application, rating scale 0-100
Procedure, shortened: as §1

[7] = test system: green foxtail (Setaria viridis, SETVI); assay: as above; conditions: post-emerge, 14 days after application, rating scale 0-100
Procedure, shortened: as §1

[8] = test system: lambsquarters (Chenopodium album, CHEAL); assay: as above; conditions: post-emerge, 14 days after application, rating scale 0-100
Procedure, shortened: as §1

[9] = test system: large crabgrass (Digitaria sanguinalis, DIGSA); assay: as above; conditions: post-emerge, 14 days after application, rating scale 0-100
Procedure, shortened: as §1

[10] = test system: redroot pigweed (Amaranthus retroflexus, AMARE); assay: Pre-emerge test, greenhouse herbicide activity screening; conditions: pre-emerge, 14 days after application, scale 0-100
Procedure, shortened: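 Herbicidal damage is scored 0 (none) to 100 (complete plant death) two weeks after a simulated field spray. Rates span 15–1000 g ai/ha, delivered in acetone at 187 l/ha. For post-emergence treatments, plants have 2–3 leaves and the spray carries 0.25% v/v non-ionic surfactant.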

[11] = test system: field corn (Zea mays L., var. Dekalb 535, CORN); assay: Pre-emerge test, crop safety; conditions: pre-emerge, 14 days after application, scale 0-100
Procedure, shortened: (§2)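 Sandy loam pots; pre-emerge: sown 1 d pre-spray, surface-watered after, then bottom-watered. Post-emerge: sown 8–21 d before, 2–3 leaf stage, + 0.25% v/v NIS, bottom-watered. Acetone, 187 l/ha track spray, 15–1000 g ai/ha. 0–100 injury score, day 14.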

[12] = test system: upland rice (Oryza sp., var. Tebonnet, RICE); assay: Pre-emerge test, crop safety; conditions: pre-emerge, 14 days after application, scale 0-100
Procedure, shortened: as §2

[13] = test system: field corn (Zea mays L., var. Dekalb 535, CORN); assay: Post-emerge test, crop safety; conditions: post-emerge, 14 days after application, rating scale 0-100
Procedure, shortened: as §2

[14] = test system: upland rice (Oryza sp., var. Tebonnet, RICE); assay: Post-emerge test, crop safety; conditions: post-emerge, 14 days after application, rating scale 0-100
Procedure, shortened: as §2

[15] = test system: common ragweed (Ambrosia artemisizfolia L., AMBEL); assay: Pre-emerge test, greenhouse herbicide activity screening; conditions: pre-emerge, 14 days after application, scale 0-100
Procedure, shortened: as §2

[16] = test system: ivyleaf morningglory (Ipomoea hederacea, IPOHE); assay: as above; conditions: pre-emerge, 14 days after application, scale 0-100
Procedure, shortened: as §2

[17] = test system: barnyardgrass (Echinochloa crus-galli, ECHCG); assay: as above; conditions: pre-emerge, 14 days after application, scale 0-100
Procedure, shortened: as §2

[18] = test system: sicklepod (Cassia obtusifolia, CASOB); assay: as above; conditions: pre-emerge, 14 days after application, scale 0-100
Procedure, shortened: as §2

[19] = test system: johnsongrass (Sorghum halepense, SORHA); assay: as above; conditions: pre-emerge, 14 days after application, scale 0-100
Procedure, shortened: as §2

[20] = test system: velvetleaf (Abutilon theophrasti, ABUTH); assay: as above; conditions: pre-emerge, 14 days after application, scale 0-100
Procedure, shortened: as §2

[21] = test system: green foxtail (Setaria viridis, SETVI); assay: as above; conditions: pre-emerge, 14 days after application, scale 0-100
Procedure, shortened: as §2

[22] = test system: lambsquarters (Chenopodium album, CHEAL); assay: as above; conditions: pre-emerge, 14 days after application, scale 0-100
Procedure, shortened: as §2

[23] = test system: large crabgrass (Digitaria sanguinalis, DIGSA); assay: as above; conditions: pre-emerge, 14 days after application, scale 0-100
Procedure, shortened: as §2

COc1c(Cl)cc(F)c(-n2c(=O)cc(C(F)(F)F)n(C)c2=O)c1NC(=O)c1ccc2c(C#N)cccc2c1 [2-163]
AMARE phytotoxicity rating ([1]; 63 g ai/ha): 100 | AMARE phytotoxicity rating ([1]; 250 g ai/ha): 100 | IPOHE phytotoxicity rating ([2]; 63 g ai/ha): 98 | IPOHE phytotoxicity rating ([2]; 250 g ai/ha): 95 | ECHCG phytotoxicity rating ([3]; 63 g ai/ha): 55 | ECHCG phytotoxicity rating ([3]; 250 g ai/ha): 70 | CASOB phytotoxicity rating ([4]; 63 g ai/ha): 90 | CASOB phytotoxicity rating ([4]; 250 g ai/ha): 90 | SORHA phytotoxicity rating ([5]; 63 g ai/ha): 0 | SORHA phytotoxicity rating ([5]; 250 g ai/ha): 10 | ABUTH phytotoxicity rating ([6]; 63 g ai/ha): 99 | ABUTH phytotoxicity rating ([6]; 250 g ai/ha): 100 | SETVI phytotoxicity rating ([7]; 63 g ai/ha): 50 | SETVI phytotoxicity rating ([7]; 250 g ai/ha): 60 | CHEAL phytotoxicity rating ([8]; 63 g ai/ha): 100 | CHEAL phytotoxicity rating ([8]; 250 g ai/ha): 100 | DIGSA phytotoxicity rating ([9]; 63 g ai/ha): 30 | DIGSA phytotoxicity rating ([9]; 250 g ai/ha): 45 | phytotoxicity rating AMARE ([10]; 63 g ai/ha): 100 | phytotoxicity rating AMARE ([10]; 250 g ai/ha): 100 | phytotoxicity rating CORN (crop damage) ([11]; 63 g ai/ha): 0 | phytotoxicity rating CORN (crop damage) ([11]; 250 g ai/ha): 0 | phytotoxicity rating RICE (crop damage) ([12]; 63 g ai/ha): 0 | phytotoxicity rating RICE (crop damage) ([12]; 250 g ai/ha): 30 | CORN phytotoxicity rating (crop damage) ([13]; 63 g ai/ha): 35 | CORN phytotoxicity rating (crop damage) ([13]; 250 g ai/ha): 40 | RICE phytotoxicity rating (crop damage) ([14]; 63 g ai/ha): 20 | RICE phytotoxicity rating (crop damage) ([14]; 250 g ai/ha): 55 | phytotoxicity rating AMBEL ([15]; 63 g ai/ha): 65 | phytotoxicity rating AMBEL ([15]; 250 g ai/ha): 95 | phytotoxicity rating IPOHE ([16]; 63 g ai/ha): 40 | phytotoxicity rating IPOHE ([16]; 250 g ai/ha): 95 | phytotoxicity rating ECHCG ([17]; 63 g ai/ha): 0 | phytotoxicity rating ECHCG ([17]; 250 g ai/ha): 75 | phytotoxicity rating CASOB ([18]; 63 g ai/ha): 10 | phytotoxicity rating CASOB ([18]; 250 g ai/ha): 60 | phytotoxicity rating SORHA ([19]; 63 g ai/ha): 0 | phytotoxicity rating SORHA ([19]; 250 g ai/ha): 30 | phytotoxicity rating ABUTH ([20]; 63 g ai/ha): 95 | phytotoxicity rating ABUTH ([20]; 250 g ai/ha): 100 | phytotoxicity rating SETVI ([21]; 63 g ai/ha): 60 | phytotoxicity rating SETVI ([21]; 250 g ai/ha): 95 | phytotoxicity rating CHEAL ([22]; 63 g ai/ha): 100 | phytotoxicity rating CHEAL ([22]; 250 g ai/ha): 100 | phytotoxicity rating DIGSA ([23]; 63 g ai/ha): 35 | phytotoxicity rating DIGSA ([23]; 250 g ai/ha): 100
